This note sets out measurements from patent US9708305B2, “Substituted 1,2,3,4-tetrahydroisoquinoline derivatives for the treatment of hormone-dependent diseases” (UNIVERSITÉ LAVAL, priority 2013, dated 2017).

Molecules are shown by their SMILES. Values joined by “and” are separate entries in the source; they are usually repeats but may differ in a detail not shown here. Equal values may be shown once.

The test system of one test is T-47D cells. Briefly: T-47D cell proliferation (estrogenicity / cytotoxicity), MTS. The test is classed as cell-based. Particulars: Homo sapiens, T47D, control cells set to 100%, mean±SD. The method, then: The library of phenolic compounds described above was tested on estrogen-sensitive breast cancer T-47D cells.
In Table 1, cell proliferation of control cells is set to 100%. Results are expressed as mean±SD of one experiment in triplicate.
CellTitter 96® Aqueous One Solution Cell Proliferation Assay was used as an indirect colorimetric measurement of cell proliferation according to the manufacturer's instructions. Briefly, after the treatments, 20 μL of MTS solution was added to each well (100 μL) of the plates and incubated at 37° C. for 2 h (Saos-2) or 4 h (T-47D). The absorbance at 490 nm was then measured with a Thermo max microplate reader (Molecular Devices, Sunnyvale, Calif.). The control (culture media+DMSO) is set to 100% of cell proliferation.
The cells were plated in 96-well plates at a density of 3 000 cells/well and allowed to attach for 48 h. After this pre-incubation, the inhibitors and the reference compounds diluted in fresh culture media were added to the wells and replaced every 2 days for 7 days of treatment.

Another test has as its target T1, STS (Homo sapiens, UniProt P08842).
T1 construct: expressed in transfected cells; host or cells: HEK-293 cells stably transfected with STS (G418 selection), obtained from Dr. Van Luu-The; used as freeze-thaw homogenate
T1 sequence (P08842 22-583): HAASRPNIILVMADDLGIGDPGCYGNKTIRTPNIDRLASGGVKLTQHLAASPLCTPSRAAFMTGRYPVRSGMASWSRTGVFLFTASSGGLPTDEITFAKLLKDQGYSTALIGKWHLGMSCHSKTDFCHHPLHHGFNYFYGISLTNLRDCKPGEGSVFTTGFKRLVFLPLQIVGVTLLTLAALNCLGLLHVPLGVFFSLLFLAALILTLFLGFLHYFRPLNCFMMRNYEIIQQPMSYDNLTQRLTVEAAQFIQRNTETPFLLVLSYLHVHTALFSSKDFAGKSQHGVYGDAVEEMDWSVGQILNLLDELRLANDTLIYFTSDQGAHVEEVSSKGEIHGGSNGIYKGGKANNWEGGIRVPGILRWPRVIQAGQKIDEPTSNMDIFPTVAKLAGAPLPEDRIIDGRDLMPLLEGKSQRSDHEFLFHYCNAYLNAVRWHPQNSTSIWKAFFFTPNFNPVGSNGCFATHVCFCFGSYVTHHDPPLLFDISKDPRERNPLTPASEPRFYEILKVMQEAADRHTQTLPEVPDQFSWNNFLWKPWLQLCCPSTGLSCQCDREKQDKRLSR
Briefly: STS inhibition of libraries 1-EO to 4-EO, homogenate of STS transfected HEK-293 cells. The test is classed as biochemical. Particulars: mean ± SEM, triplicate. Here is the method: The enzymatic assay was performed using homogenate of STS transfected HEK-293 cells as the source of enzyme activity. The transformation of [^3H]-E1S into [^3H]-E1 was measured using scintillation counting of labeled E1S and E1 in the aqueous and organic phases, respectively. Newly synthesized sulfamate compounds were tested at two concentrations (0.1 μM and 1 μM). Libraries 1-EO and 2-EO were synthesized using the p- and m-benzamide spacers as 1st level of molecular diversity and the same wide variety of secondary amines as 2nd level of diversity (Table 2), which were chosen in a somewhat random fashion while including a different pattern, format and heteroatom. […] Compounds 1-EO-07, 1-EO-09 and 1-EO-10 represent a starting point for optimization, as they show more than 36% of inhibition when tested at a concentration of 0.1 μM. These compounds have relatively hydrophobic substituents compared to the rest of the library members. […] The average log P value for the rest of the library, excluding these three compounds, is 1.93.
This enzymatic assay was carried out according to a procedure previously described for the transformation of substrate [^3H]-E1S (100 μM) into [^3H]-E1 by homogenated HEK-293 cells over-expressing the enzyme activity.^56,73

Turning to `O=C(c1ccc(CN(CCCn2ccnc2)Cc2ccccn2)cc1)N1CCc2ccc(O)cc2C1` [Compound 23, (7-hydroxy-3,4-dihydroisoquinolin-2(1H)-yl)[4-({[3-(1H-imidazol-1-yl)propyl](pyridin-2-ylmethyl)amino}methyl)phenyl]methanone], in the test with T-47D cells, the activity at 0.01 µM came to 103 ± 2.2%, the activity at 0.1 µM is 113 ± 3.7% and the activity at 1 µM is 39.2 ± 2.9%.

For the molecule `O=C(c1ccc(CN(Cc2ccc(Br)cc2)Cc2ccco2)cc1)N1CCc2ccc(O)cc2C1` [Compound 26, (4-{[(4-bromobenzyl)(furan-2-ylmethyl)amino]methyl}phenyl)(7-hydroxy-3,4-dihydroisoquinolin-2(1H)-yl)methanone], in the test on T-47D cells, the activity at 0.01 µM worked out at 106.3 ± 0.6%, the activity at 0.1 µM amounted to 109 ± 1.2% and the activity at 1 µM is 59.2 ± 3.1%.

On to `O=C(c1ccc(CN(Cc2ccc(O)cc2)Cc2ccco2)cc1)N1CCc2ccc(O)cc2C1` [Compound 30, (4-{[(furan-2-ylmethyl)(4-hydroxybenzyl)amino]methyl}phenyl)(7-hydroxy-3,4-dihydroisoquinolin-2(1H)-yl)methanone], for which, in the test on T-47D cells, the activity at 0.01 µM came out at 108 ± 5.5%, the activity at 0.1 µM turned out to be 138 ± 1.2% and the activity at 1 µM is 200 ± 4.9%.

Turning to `O=C(c1ccc(CN(Cc2ccco2)Cc2ccccc2OCCCN2CCCCC2)cc1)N1CCc2ccc(O)cc2C1` [Compound 21], in the test on T-47D cells, the activity at 0.01 µM came to 96.8 ± 1.2%, the activity at 0.1 µM was determined as 106 ± 5.6% and the activity at 1 µM was 0%.

Regarding `O=C(c1ccc(CN(CCCn2ccnc2)Cc2ccco2)cc1)N1CCc2ccc(O)cc2C1` [Compound 24, [4-({(furan-2-ylmethyl)[3-(1H-imidazol-1-yl)propyl]amino}methyl)phenyl](7-hydroxy-3,4-dihydroisoquinolin-2(1H)-yl)methanone], in the test with T-47D cells, the activity at 0.01 µM stood at 94.9 ± 1.3%, the activity at 0.1 µM was 98.5 ± 4.5% and the activity at 1 µM is 115 ± 5.9%.

With `O=C(c1ccc(CN(CCN2CCOCC2)Cc2ccco2)cc1)N1CCc2ccc(O)cc2C1` [Compound 27, [4-({(furan-2-ylmethyl)[2-(morpholin-4-yl)ethyl]amino}methyl)phenyl](7-hydroxy-3,4-dihydroisoquinolin-2(1H)-yl)methanone], in the test on T-47D cells, the activity at 0.01 µM is 108 ± 5.5%, the activity at 0.1 µM was found to be 106 ± 1.5% and the activity at 1 µM was 119 ± 9.6%.

As to `O=C(c1ccc(CN(Cc2ccc(OCCCN3CCCCC3)cc2)Cc2ccccn2)cc1)N1CCc2ccc(O)cc2C1` [Compound 20, (7-hydroxy-3,4-dihydroisoquinolin-2(1H)-yl)(4-{[{4-[3-(piperidin-1-yl)propoxy]benzyl}(pyridin-2-ylmethyl)amino]methyl}phenyl)methanone], in the test on T-47D cells, the activity at 0.01 µM came out at 105.9 ± 1%, the activity at 0.1 µM was 104 ± 4.8% and the activity at 1 µM is 60.7 ± 6.4%.

Turning to `NS(=O)(=O)Oc1ccc2c(c1)CN(C(=O)c1cccc(CN3CCN(c4ncccn4)CC3)c1)CC2` [2-EO-06], the “STS inhibition (%)” value worked out at 1.6 ± 1.6% at STS (0.1 μM) and 24.4 ± 0.4% on STS (1 μM).

In the case of `NS(=O)(=O)Oc1ccc2c(c1)CN(C(=O)c1cccc(CN(Cc3ccccc3)Cc3ccco3)c1)CC2` [4-EO-11], the “STS inhibition (%)” value on STS (0.1 μM) is on record as 27.5 ± 0.9%.

As for `CN(C)CCCN(Cc1ccccc1)Cc1ccc(C(=O)N2CCc3ccc(OS(N)(=O)=O)cc3C2)cc1` [3-EO-05], the “STS inhibition (%)” value was found to be 16.2 ± 4.6% on STS (0.1 μM) and 61.6 ± 4.9% at STS (1 μM).

What is called inhibition is the share of the control response that was lost under treatment. Higher therefore signals a response far below the control. The molecule `CCN(Cc1ccccc1)Cc1ccc(CN2CCc3ccc(OS(N)(=O)=O)cc3C2)cc1` [Compound 11] displayed an inhibition at 0.1 µM against STS (0.1 μM) of 1%. The inhibition at 1 µM against STS (1 μM) was found to be 17%.

Turning to `CCN(Cc1ccncc1)Cc1cccc(C(=O)N2CCc3ccc(OS(N)(=O)=O)cc3C2)c1` [4-EO-16], the “STS inhibition (%)” value at STS (0.1 μM) was 33.3 ± 0.0%; at STS (1 μM), 52.8 ± 1.3%.

In turn, `CCN(Cc1ccccc1)Cc1ccc(S(=O)(=O)N2CCc3ccc(OS(N)(=O)=O)cc3C2)cc1` [Compound 14] gave an inhibition at 0.1 µM at STS (0.1 μM) of 10%. Further, on STS (1 μM), at 1 µM the inhibition was 31%.

Turning to `CCCN(CCC)Cc1ccc(C(=O)N2CCc3ccc(OS(N)(=O)=O)cc3C2)cc1` [1-EO-10], the “STS inhibition (%)” value at STS (1 μM) is 84.7 ± 0.2%.

As to `O=C(c1ccc(CN(Cc2ccc(OCCCN3CCCCC3)cc2)Cc2ccco2)cc1)N1CCc2ccc(O)cc2C1` [Compound 22, (4-{[(furan-2-ylmethyl){4-[3-(piperidin-1-yl)propoxy]benzyl}amino]methyl}phenyl)(7-hydroxy-3,4-dihydroisoquinolin-2(1H)-yl)methanone], in the test with T-47D cells, the activity at 0.01 µM stood at 95.6 ± 1.8%, the activity at 0.1 µM turned out to be 120 ± 4.8% and the activity at 1 µM turned out to be 134 ± 3%.

Consider `NS(=O)(=O)Oc1ccc2c(c1)CN(C(=O)c1ccc(CN3CCN(c4ncccn4)CC3)cc1)CC2` [1-EO-06], for which the “STS inhibition (%)” value came to 14.7 ± 3.6% at STS (0.1 μM) and 41.9 ± 0.8% on STS (1 μM).

In the case of `O=C(c1ccc(CN(Cc2ccccn2)Cc2ccccc2OCCCN2CCCCC2)cc1)N1CCc2ccc(O)cc2C1` [Compound 19, (7-hydroxy-3,4-dihydroisoquinolin-2(1H)-yl)(4-{[{2-[3-(piperidin-1-yl)propoxy]benzyl}(pyridin-2-ylmethyl)amino]methyl}phenyl)methanone], in the test with T-47D cells, the activity at 0.01 µM amounted to 103 ± 6.9%, the activity at 0.1 µM amounted to 99.8 ± 4.2% and the activity at 1 µM is 37.1 ± 4.2%.

In the case of `Cc1ccc(CN(Cc2ccc(C(=O)N3CCc4ccc(O)cc4C3)cc2)Cc2ccccn2)s1` [Compound 28, (7-hydroxy-3,4-dihydroisoquinolin-2(1H)-yl)[4-({[(5-methylthiophen-2-yl)methyl](pyridin-2-ylmethyl)amino}methyl)phenyl]methanone], in the test on T-47D cells, the activity at 0.01 µM turned out to be 101 ± 3.8%, the activity at 0.1 µM was found to be 105 ± 4.4% and the activity at 1 µM worked out at 78.9 ± 6.8%.

With `NS(=O)(=O)Oc1ccc2c(c1)CN(C(=O)c1ccc(CN(Cc3ccccc3)Cc3ccco3)cc1)CC2` [3-EO-11], the “STS inhibition (%)” value was 91% and 90.8 ± 2.6% on STS (0.1 μM); 98.2 ± 0.4% on STS (1 μM).

For `NS(=O)(=O)Oc1ccc2c(c1)CN(C(=O)c1ccc(CN(CCCO)Cc3ccccc3)cc1)CC2` [3-EO-03], the “STS inhibition (%)” value on STS (0.1 μM) is reported as 5.7 ± 4.4%; at STS (1 μM), 64.3 ± 1.6%.

Consider `NS(=O)(=O)Oc1ccc2c(c1)CN(C(=O)c1ccc(CN3CCCCC3)cc1)CC2` [1-EO-02], for which the entries for the “STS inhibition (%)” value at STS (0.1 μM) and at STS (1 μM) were 11.5 ± 2.4% and 38.3 ± 3.6%, respectively.

On to `CCN(Cc1cccc(C(=O)N2CCc3ccc(OS(N)(=O)=O)cc3C2)c1)Cc1ccccn1` [4-EO-14], for which the “STS inhibition (%)” value on STS (0.1 μM) is reported as 6.5 ± 6.9%; on STS (1 μM) it was 19.9 ± 12.6%.

Consider `CCN(Cc1ccc(C(=O)N2CCc3ccc(OS(N)(=O)=O)cc3C2)cc1)Cc1ccccn1` [3-EO-14], for which the “STS inhibition (%)” value at STS (0.1 μM) is given as 42.5 ± 3.5%; at STS (1 μM), 87.7 ± 0.7%.

For `CCN(Cc1ccc(C(=O)N2CCc3ccc(OS(N)(=O)=O)cc3C2)cc1)Cc1cccnc1` [3-EO-15], the “STS inhibition (%)” value is 35.7 ± 4.3% on STS (0.1 μM) and 85.2 ± 1.7% on STS (1 μM).

Consider `CN(C)CCN(CCN(C)C)Cc1cccc(C(=O)N2CCc3ccc(OS(N)(=O)=O)cc3C2)c1` [4-EO-08], for which the entries for the “STS inhibition (%)” value at STS (0.1 μM) and at STS (1 μM) were 0.0 ± 0.0% and 17.1 ± 7.6%, respectively.
